From ChEMBL document CHEMBL3425491, “Development of novel ACK1/TNK2 inhibitors using a fragment-based approach” (J Med Chem, 2015) come the findings set out here.

The subject of data set [1] is Plasma. Description: Half life in human plasma. It is filed as ADME, cell-free.
The nature of data set [2]: Solubility in PBS with 10% DMSO. It is filed as physicochemical. Particulars: buffer.
Data set [3] can be described thus: cells. Particulars: Homo sapiens, VCaP, 72 h.
Data set [4] addresses T1, Activated CDC42 kinase 1 (Homo sapiens, UniProt Q07912). Description: Inhibition of ACK1 kinase (unknown origin).
Target sequence in this assay (Q07912 whole entry): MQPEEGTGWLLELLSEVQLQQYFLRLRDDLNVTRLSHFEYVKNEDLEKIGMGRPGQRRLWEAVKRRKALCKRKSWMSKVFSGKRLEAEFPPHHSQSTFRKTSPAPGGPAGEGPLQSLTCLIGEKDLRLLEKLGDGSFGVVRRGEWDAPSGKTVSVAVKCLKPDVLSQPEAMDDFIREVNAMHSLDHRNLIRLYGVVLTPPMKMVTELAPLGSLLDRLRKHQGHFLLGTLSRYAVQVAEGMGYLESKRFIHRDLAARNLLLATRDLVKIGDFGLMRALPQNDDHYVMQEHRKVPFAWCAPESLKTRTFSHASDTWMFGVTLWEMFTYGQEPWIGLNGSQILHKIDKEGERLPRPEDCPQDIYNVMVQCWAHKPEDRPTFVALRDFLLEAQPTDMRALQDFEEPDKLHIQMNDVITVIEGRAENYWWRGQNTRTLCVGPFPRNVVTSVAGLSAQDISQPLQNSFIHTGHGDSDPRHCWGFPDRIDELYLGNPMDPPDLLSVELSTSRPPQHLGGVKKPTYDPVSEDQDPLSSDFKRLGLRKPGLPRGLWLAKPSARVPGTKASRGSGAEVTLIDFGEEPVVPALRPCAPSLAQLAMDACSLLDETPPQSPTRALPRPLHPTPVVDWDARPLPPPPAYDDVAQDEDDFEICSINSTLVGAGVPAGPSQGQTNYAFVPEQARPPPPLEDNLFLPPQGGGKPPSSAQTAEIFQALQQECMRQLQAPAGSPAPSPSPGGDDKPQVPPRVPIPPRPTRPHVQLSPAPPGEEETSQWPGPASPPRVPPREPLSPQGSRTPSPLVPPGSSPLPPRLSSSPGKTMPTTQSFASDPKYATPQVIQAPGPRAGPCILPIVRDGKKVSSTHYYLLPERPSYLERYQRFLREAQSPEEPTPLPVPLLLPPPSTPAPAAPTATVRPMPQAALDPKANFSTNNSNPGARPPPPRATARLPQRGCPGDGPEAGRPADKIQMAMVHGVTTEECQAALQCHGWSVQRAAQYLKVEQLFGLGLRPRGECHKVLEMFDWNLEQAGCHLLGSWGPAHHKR
Data set [5] deals with LAPC4. Description: Anticancer activity against human LAPC4 cells assessed as inhibition of cell growth up to 10 uM after 72 hrs by trypan blue exclusion assay. The format is functional, cell-based.
Data set [6] addresses T1, Activated CDC42 kinase 1. Description: Inhibition of human ACK1 kinase activity using biotinylated ATGRYYAMKIL - AKT peptide substrate assessed as phosphorylation at 10 uM by ELISA. It is filed as single protein.
Target sequence in this assay (Q07912 whole entry, looked up): as the sequence (Q07912 whole entry) above
Data set [7] concerns the target Tyrosine-protein kinase Lck (Homo sapiens, UniProt P06239).

Converted amounts (≈) assume the structure as drawn. The source made the active and inactive calls. The rule behind the calls is not given here.

Chain of Tyrosine-protein kinase Lck (P06239 whole entry): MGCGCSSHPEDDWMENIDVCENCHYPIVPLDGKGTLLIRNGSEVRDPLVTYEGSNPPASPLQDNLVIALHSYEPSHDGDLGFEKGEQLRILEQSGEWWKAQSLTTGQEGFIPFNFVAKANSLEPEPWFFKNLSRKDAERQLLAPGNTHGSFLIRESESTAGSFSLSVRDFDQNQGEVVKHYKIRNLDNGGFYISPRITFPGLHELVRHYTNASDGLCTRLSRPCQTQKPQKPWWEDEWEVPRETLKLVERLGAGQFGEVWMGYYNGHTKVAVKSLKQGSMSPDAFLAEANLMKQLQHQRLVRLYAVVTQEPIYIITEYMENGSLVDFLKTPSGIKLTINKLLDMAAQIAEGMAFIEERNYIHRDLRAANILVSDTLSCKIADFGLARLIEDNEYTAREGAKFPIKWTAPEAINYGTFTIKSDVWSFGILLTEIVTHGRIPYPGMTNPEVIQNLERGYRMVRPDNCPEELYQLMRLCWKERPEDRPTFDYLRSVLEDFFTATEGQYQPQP

As to `CN1CCN(c2ccc(Nc3ncc(Cl)c(NC[C@@H]4CCCO4)n3)cc2)CC1`, the t1/2 in data set [1] was > 6 h. The solubility in data set [2] came out at 0.9 mg/mL (≈ 2230 µM). The values for the IC50 in data set [3] and in data set [4] were 4 µM and 82 nM, respectively. Also, in data set [5], the inhibition result was “Active”.
For the molecule `Brc1cnc(Nc2ccc(C3CCNCC3)cc2)nc1NCC1CCCO1` (racemic), the inhibition in data set [6] was determined as 84.5%.
Same read-out and setting: the result for `O=C(O)CCCc1ccc(Nc2ncc(Cl)c(NCC3CCCO3)n2)cc1` (stereo not given) reads 60%.
As for `CN(C)CCOc1ccc(-c2oc3ncnc(NCC4SCCS4)c3c2-c2ccccc2)cc1`, the Ki in data set [7] amounted to 138 nM; in data set [4], 0.3 nM.
`O=C(O)CCc1ccc(Nc2ncc(Br)c(NCC3CCCO3)n2)cc1` (stereo not given): in data set [6], the inhibition was found to be 74.5%.
For `c1ccc(-c2oc3ncnc(NC[C@@H]4CCCO4)c3c2-c2ccccc2)cc1`, in data set [5], the inhibition result was “Active”.
For `CN1CCN(c2ccc(Nc3ncc(C(=O)Nc4c(F)cccc4Cl)c(NCC4CCCO4)n3)cc2)CC1` (stereo not given), the inhibition in data set [6] came out at 97%.
The same measure, in the same setting: as for `O=C(O)CCC(=O)N1CCN(c2ccc(Nc3ncc(Br)c(NCC4CCCO4)n3)cc2)CC1` (stereo not given), the figure is 92%; as for `O=C(O)CCc1ccc(Nc2ncc(Cl)c(NCC3CCCO3)n2)cc1` (stereo not given), 74%; as for `O=C(Nc1c(F)cccc1Cl)c1cnc(Nc2ccc(N3CCOCC3)cc2)nc1NCC1CCCO1` (racemic), 82%.
Still for that read-out and setting: as for `O=C(Nc1c(F)cccc1Cl)c1cnc(Nc2ccc(N3CCNCC3)cc2)nc1NCC1CCCO1` (racemic), the figure is 89.5%.
The same measure, in the same setting: the result for `CN1CCN(c2ccc(Nc3nccc(NCC4CCCO4)n3)cc2)CC1` (stereo not given) reads 16%.
On to `Clc1cnc(Nc2ccc(C3CCNCC3)cc2)nc1NCC1CCCO1` (racemic), for which the inhibition in data set [6] came out at 79.5%.
On the same count and under the same terms, the result for `O=C(Nc1c(F)cccc1Cl)c1cnc(Nc2ccc(O)cc2)nc1NCC1CCCO1` (racemic) reads 85%.
Consider `Oc1ccc(Nc2ncc(Cl)c(NCC3CCCO3)n2)cc1` (stereo not given), for which, in data set [6], the inhibition came to 65%.
